From patent US20250230193A1, “CYCLIC COMPOUND HAVING SELECTIVE KRAS INHIBITORY EFFECT ON HRAS AND NRAS” (CHUGAI SEIYAKU KABUSHIKI KAISHA, priority 2022, published 2025) come the findings set out here.

The structures appear in SMILES notation.

Assay [1] concerns the target GDP-bound NRAS wild-type protein (Homo sapiens, UniProt P01111). Put plainly: Binding to NRAS by surface plasmon resonance (SPR), Single Cycle Kinetics. Conditions: SPR, GDP-bound NRAS wild-type vs GDP-bound KRAS wild-type. On the technique in general: Surface plasmon resonance follows binding to a sensor surface in real time, without labels.
The target of assay [2] is GDP-bound HRAS wild-type protein (Homo sapiens, UniProt P01112). Put plainly: Binding to HRAS by surface plasmon resonance (SPR), Single Cycle Kinetics. Conditions: SPR, GDP-bound HRAS wild-type vs GDP-bound KRAS wild-type.
GDP-bound HRAS wild-type protein, sequence (P01112 whole entry): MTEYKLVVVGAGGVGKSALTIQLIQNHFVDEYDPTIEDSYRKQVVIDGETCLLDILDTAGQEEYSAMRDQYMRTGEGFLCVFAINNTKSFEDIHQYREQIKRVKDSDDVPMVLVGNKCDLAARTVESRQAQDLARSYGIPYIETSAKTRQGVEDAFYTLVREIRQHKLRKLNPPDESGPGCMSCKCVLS

GDP-bound NRAS wild-type protein, sequence (P01111 whole entry): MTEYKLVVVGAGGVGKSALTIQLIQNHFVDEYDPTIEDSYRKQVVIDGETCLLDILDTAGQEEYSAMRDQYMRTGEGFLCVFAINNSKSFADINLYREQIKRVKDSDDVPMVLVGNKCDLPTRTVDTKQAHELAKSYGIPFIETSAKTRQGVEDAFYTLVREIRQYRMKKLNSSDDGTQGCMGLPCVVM

For the molecule `CCO[C@H](C)[C@@H]1NC(=O)[C@H](CC(C)C)N(C)C(=O)C[C@@H](C(=O)N(C)CC)N(C)C(=O)[C@H](C2CCCC2)N(C)C(=O)C2(CC(C)(C)C2)NC(=O)[C@@H]2C[C@H](C)CN2C(=O)[C@H](CCc2ccc(C(F)(F)F)c(OC)c2)NC(=O)CN(C)C(=O)[C@H](Cc2ccc(C)cc2)N2CC/C=C\C[C@@H](C2=O)N(C)C(=O)CN(C)C1=O` [PP2413], the “NRAS/KRAS (ratio of KD value with respect to NRAS to KD value with respect to KRAS)” value in assay [1] was “A (a compound having 10 or more and less than 20 is denoted as A)”. Moreover, the “HRAS/KRAS (ratio of KD value with respect to HRAS to KD value with respect to KRAS)” value in assay [2] is “A (a compound having 10 or more and less than 20 is denoted as A)”.
As for `CCO[C@H](C)[C@@H]1NC(=O)[C@H](CC(C)C)N(C)C(=O)C[C@@H](C(=O)N(C)CC)N(C)C(=O)[C@H](C2CCCC2)N(C)C(=O)C2(CC(C)(C)C2)NC(=O)[C@@H]2C[C@H](C)CN2C(=O)[C@H](CCc2cc(F)c(C(F)(F)F)c(F)c2)NC(=O)CN(C)C(=O)[C@H](Cc2ccc(C)cc2)N2CC/C=C\C[C@@H](C2=O)N(C)C(=O)CN(C)C1=O` [PP2414], in assay [1], the “NRAS/KRAS (ratio of KD value with respect to NRAS to KD value with respect to KRAS)” value was “A (a compound having 10 or more and less than 20 is denoted as A)”. In addition, in assay [2], the “HRAS/KRAS (ratio of KD value with respect to HRAS to KD value with respect to KRAS)” value is “A (a compound having 10 or more and less than 20 is denoted as A)”.
As for `CCCO[C@H](C)[C@@H]1NC(=O)[C@H](CC(C)C)N(C)C(=O)C[C@@H](C(=O)N(C)C)N(C)C(=O)[C@H](C2CCCC2)N(C)C(=O)C2(CC(C)(C)C2)NC(=O)[C@@H]2C[C@H](C)CN2C(=O)[C@H](CCc2ccc(C(F)(F)F)c(OC)c2)NC(=O)CN(C)C(=O)[C@H](Cc2ccc(C)cc2)N2CC/C=C\C[C@@H](C2=O)N(C)C(=O)CN(C)C1=O` [PP2415], the “NRAS/KRAS (ratio of KD value with respect to NRAS to KD value with respect to KRAS)” value in assay [1] is reported as “AA (a compound having 20 or more is denoted as AA)”. Further, the “HRAS/KRAS (ratio of KD value with respect to HRAS to KD value with respect to KRAS)” value in assay [2] was “A (a compound having 10 or more and less than 20 is denoted as A)”.
Take `CCCO[C@H](C)[C@@H]1NC(=O)[C@H](CC(C)C)N(C)C(=O)C[C@@H](C(=O)N(C)CC)N(C)C(=O)[C@H](C2CCCC2)N(C)C(=O)C2(CC(C)(C)C2)NC(=O)[C@@H]2C[C@H](C)CN2C(=O)[C@H](CCc2ccc(C(F)(F)F)c(OC)c2)NC(=O)CN(C)C(=O)[C@H](Cc2ccc(C)cc2)N2CC/C=C\C[C@@H](C2=O)N(C)C(=O)CN(C)C1=O` [PP2416]: the “NRAS/KRAS (ratio of KD value with respect to NRAS to KD value with respect to KRAS)” value in assay [1] is “A (a compound having 10 or more and less than 20 is denoted as A)”. Also, in assay [2], the “HRAS/KRAS (ratio of KD value with respect to HRAS to KD value with respect to KRAS)” value was “B (a compound having 3 or more and less than 10 is denoted as B)”.
On to `CCCO[C@H](C)[C@@H]1NC(=O)[C@H](CC(C)C)N(C)C(=O)C[C@@H](C(=O)N(C)CC)N(C)C(=O)[C@H](C2CCCC2)N(C)C(=O)C2(CC(C)(C)C2)NC(=O)[C@@H]2C[C@H](C)CN2C(=O)[C@H](CCc2cc(F)c(C(F)(F)F)c(F)c2)NC(=O)CN(C)C(=O)[C@H](Cc2ccc(C)cc2)N2CC/C=C\C[C@@H](C2=O)N(C)C(=O)CN(C)C1=O` [PP2417], for which the “NRAS/KRAS (ratio of KD value with respect to NRAS to KD value with respect to KRAS)” value in assay [1] was “A (a compound having 10 or more and less than 20 is denoted as A)”. Further, the “HRAS/KRAS (ratio of KD value with respect to HRAS to KD value with respect to KRAS)” value in assay [2] is “A (a compound having 10 or more and less than 20 is denoted as A)”.
For the molecule `CCO[C@H](C)[C@@H]1NC(=O)[C@H](CC(C)C)N(C)C(=O)C[C@@H](C(=O)N(C)C)N(C)C(=O)[C@H](C2CCCC2)N(C)C(=O)C2(CC(C)(C)C2)NC(=O)[C@@H]2C[C@H](C)CN2C(=O)[C@H](CCc2ccc(C(F)(F)F)c(OC)c2)NC(=O)CN(C)C(=O)[C@H](Cc2ccc(C)cc2)N2CC/C=C\C[C@@H](C2=O)N(C)C(=O)[C@@H]2CCCN2C1=O` [PP2418], the “NRAS/KRAS (ratio of KD value with respect to NRAS to KD value with respect to KRAS)” value in assay [1] is “A (a compound having 10 or more and less than 20 is denoted as A)”. The “HRAS/KRAS (ratio of KD value with respect to HRAS to KD value with respect to KRAS)” value in assay [2] is “B (a compound having 3 or more and less than 10 is denoted as B)”.
On to `CCO[C@H](C)[C@@H]1NC(=O)[C@H](CC(C)C)N(C)C(=O)C[C@@H](C(=O)N(C)CC)N(C)C(=O)[C@H](C2CCCC2)N(C)C(=O)C2(CC(C)(C)C2)NC(=O)[C@@H]2C[C@H](C)CN2C(=O)[C@H](CCc2ccc(C(F)(F)F)c(OC)c2)NC(=O)CN(C)C(=O)[C@H](Cc2ccc(C)cc2)N2CC/C=C\C[C@@H](C2=O)N(C)C(=O)[C@@H]2CCCN2C1=O` [PP2419], for which the “NRAS/KRAS (ratio of KD value with respect to NRAS to KD value with respect to KRAS)” value in assay [1] is “A (a compound having 10 or more and less than 20 is denoted as A)”. The “HRAS/KRAS (ratio of KD value with respect to HRAS to KD value with respect to KRAS)” value in assay [2] was “A (a compound having 10 or more and less than 20 is denoted as A)”.
For the molecule `CCOC[C@H]1C(=O)N[C@@H]([C@@H](C)OCC)C(=O)N(C)CC(=O)N(C)[C@H]2C/C=C\CCN(C2=O)[C@@H](Cc2ccc(C)cc2)C(=O)N(C)CC(=O)N[C@@H](CCc2cc(F)c(C(F)(F)F)c(F)c2)C(=O)N2C[C@@H](C)C[C@H]2C(=O)NC2(CC(C)(C)C2)C(=O)N(C)[C@@H](C2CCCC2)C(=O)N(C)[C@H](C(=O)N(C)CC)CC(=O)N1C` [PP2422], the “NRAS/KRAS (ratio of KD value with respect to NRAS to KD value with respect to KRAS)” value in assay [1] was “A (a compound having 10 or more and less than 20 is denoted as A)”. For the same molecule, in assay [2], the “HRAS/KRAS (ratio of KD value with respect to HRAS to KD value with respect to KRAS)” value was “A (a compound having 10 or more and less than 20 is denoted as A)”.
In the case of `CCCOC[C@H]1C(=O)N[C@@H]([C@@H](C)OCC)C(=O)N(C)CC(=O)N(C)[C@H]2C/C=C\CCN(C2=O)[C@@H](Cc2ccc(C)cc2)C(=O)N(C)CC(=O)N[C@@H](CCc2ccc(C(F)(F)F)c(OC)c2)C(=O)N2C[C@@H](C)C[C@H]2C(=O)NC2(CC(C)(C)C2)C(=O)N(C)[C@@H](C2CCCC2)C(=O)N(C)[C@H](C(=O)N(C)CC)CC(=O)N1C` [PP2423], in assay [1], the “NRAS/KRAS (ratio of KD value with respect to NRAS to KD value with respect to KRAS)” value was “A (a compound having 10 or more and less than 20 is denoted as A)”. The “HRAS/KRAS (ratio of KD value with respect to HRAS to KD value with respect to KRAS)” value in assay [2] is “A (a compound having 10 or more and less than 20 is denoted as A)”.
For `CCCOC[C@H]1C(=O)N[C@@H]([C@@H](C)OCC)C(=O)N(C)CC(=O)N(C)[C@H]2C/C=C\CCN(C2=O)[C@@H](Cc2ccc(C)cc2)C(=O)N(C)CC(=O)N[C@@H](CCc2cc(F)c(C(F)(F)F)c(F)c2)C(=O)N2C[C@@H](C)C[C@H]2C(=O)NC2(CC(C)(C)C2)C(=O)N(C)[C@@H](C2CCCC2)C(=O)N(C)[C@H](C(=O)N(C)CC)CC(=O)N1C` [PP2424], the “NRAS/KRAS (ratio of KD value with respect to NRAS to KD value with respect to KRAS)” value in assay [1] was “A (a compound having 10 or more and less than 20 is denoted as A)”. The “HRAS/KRAS (ratio of KD value with respect to HRAS to KD value with respect to KRAS)” value in assay [2] was “A (a compound having 10 or more and less than 20 is denoted as A)”.
Turning to `CCCO[C@H](C)[C@@H]1NC(=O)[C@H](COCC)N(C)C(=O)C[C@@H](C(=O)N(C)CC)N(C)C(=O)[C@H](C2CCCC2)N(C)C(=O)C2(CC(C)(C)C2)NC(=O)[C@@H]2C[C@H](C)CN2C(=O)[C@H](CCc2ccc(C(F)(F)F)c(OC)c2)NC(=O)CN(C)C(=O)[C@H](Cc2ccc(C)cc2)N2CC/C=C\C[C@@H](C2=O)N(C)C(=O)CN(C)C1=O` [PP2425], the “NRAS/KRAS (ratio of KD value with respect to NRAS to KD value with respect to KRAS)” value in assay [1] is “AA (a compound having 20 or more is denoted as AA)”. Also, in assay [2], the “HRAS/KRAS (ratio of KD value with respect to HRAS to KD value with respect to KRAS)” value is “A (a compound having 10 or more and less than 20 is denoted as A)”.
